Assay results reported in a melting point compilation (Tetko et al.).

Structure (SMILES) | melting point [°C]
CCCN(C)S(N)(=O)=O | 32 to 34
c1ccc2[nH]c(C3CCNCC3)nc2c1 | 253 to 255
Cc1ccc(/C=C/C(=O)O)cc1Cl | 194 to 196
CSc1ncc[nH]1 | 129 to 131
OC(c1c(F)cncc1Br)C1CCCCC1 (stereo unspecified) | 76 to 78
Cc1cc(C)c(O)c(C(=O)O)c1 | 172 to 174
Clc1ccc(OC2CCCNC2)nc1 (stereo unspecified) | 64 to 66
COCCNC(=O)C1CCNCC1 | 158 to 160
CC1(C)NC(=O)N(CCBr)C1=O | 97 to 99
Cc1cc(Br)cc(C)c1C#N | 68 to 70
CC(C)CNCC(O)c1ccccc1 (stereo unspecified) | 61 to 63
C/C(=N\O)c1sc(C)nc1C | 131 to 133
O=S(=O)(Cl)Cc1ccc(Cl)nc1 | 59 to 61
Cc1ccc(NC(=O)CO)cc1 | 139 to 141
CC1CNC(=Nc2cnc3ccccc3c2)S1 (stereo unspecified) | 144 to 146
CC(NC(=O)c1ccco1)C(=O)O (stereo unspecified) | 100 to 102
CC(=O)c1cnn(C)c1 | 51 to 53
Cc1ccc(C(=O)NCC(=O)O)s1 | 66 to 68
CC(Oc1ccc(F)c(F)c1)C(=O)O (stereo unspecified) | 39 to 41
O=C(CCl)NC(C1CC1)C1CC1 | 114 to 116
CN(C)c1ccc(-c2cncc(C(=O)O)c2)cc1 | 284 to 286
O=C(O)c1csc2cncn12 | 229 to 231

Structure (SMILES) | melting point [°C]
CCOC(=O)/C(=C(\O)CCl)c1nc(C)cs1 | 76 to 78
CC(NC(=O)C1CCOCC1)C(=O)O (stereo unspecified) | 178 to 180
CC(C)c1nnc(N)[nH]1 | 108 to 110
O=C(O)c1cc(S(=O)(=O)N2CCCCC2)ccc1N1CCCCC1 | 143 to 145
N#Cc1cc2c([nH]c1=O)CCN(Cc1ccccc1)C2 | 218 to 220
CC1CCCC(C)N1S(=O)(=O)c1ccsc1C(=O)O (stereo unspecified) | 150 to 152
Cc1cc(C(=O)O)ccc1NC(=O)OC(C)(C)C | 178 to 180
COC(=O)CC1=NC(=O)CS1 | 184 to 186
Cc1cc(=O)n2c(C)csc2c1C#N | 178 to 180
COC(=O)c1ccc(C=O)[nH]1 | 99 to 101
Cc1nn(-c2ccc(Cl)c(Cl)c2)c(C)c1CC(=O)O | 140 to 142
CC(N)=NO | 118 to 120
O=C(CCl)Cc1ccc(F)cc1 | 127 to 129
Cn1ncc2c(=O)n(CCC(=O)O)cnc21 | 212 to 214
NC(=O)NCC1CCCCC1 | 168 to 170
CCCCc1ccnc(N)n1 | 99 to 101
CCOc1ccc(OCC(=O)O)cc1 | 125 to 130
CC(C)(C)OC(=O)N1CCC(I)CC1 | 44 to 46
COc1ccc(C=O)cc1SC | 44 to 46
O=C(O)COc1cc(Cl)ccc1Cl | 146 to 148
O=C(O)c1ccn(C2CCCC2)n1 | 108 to 110
CC(C)c1nc(N)no1 | 39 to 41

Structure (SMILES) | melting point [°C]
O=C1CCc2c(Cl)cc(Br)cc21 | 124 to 126
ClCc1cc(Br)ccc1Cl | 47 to 49
COC(=O)C1CC(O)CN1C(=O)c1ccc(F)cc1 (stereo unspecified) | 150 to 152
Cc1noc2nc(C3CC3)cc(C(=O)O)c12 | 215 to 217
O=C(O)CCNC(=O)c1ccoc1 | 154 to 156
CN1CCN(c2ncc(C=O)cn2)CC1 | 90 to 92
Nc1ccn(Cc2ccncc2)n1 | 122 to 124
O=C(O)CC(Br)C(=O)c1ccc(Br)cc1 (stereo unspecified) | 109 to 111
O=C(O)C1CCCN1C(=O)C1CCCC1 (stereo unspecified) | 125 to 127
O=C(O)c1cccnc1N1CCCCC1 | 94 to 96
Cc1cc(C)c(C(=O)O)o1 | 145 to 147
CCOc1ccc(C(=O)CC)cc1OCC | 39 to 41
Cc1cc(C)c(CN)c(=O)[nH]1 | 139 to 141
CS(=O)(=O)CC1(CBr)CC1 | 50 to 52
CC(=O)Nc1cc2c(cc1C)OCO2 | 164 to 166
O=S1(=O)C=CC(Br)C1 (stereo unspecified) | 54 to 55
O=C(O)CCNS(=O)(=O)c1ccc(OC(F)(F)F)cc1 | 150 to 152
CCS(=O)(=O)Nc1cc(Br)ccc1OC | 105 to 107
CC(C)Cn1ncnc1CO | 92 to 94
CC(C)CC(=O)NNC(=O)C(C)Cl (stereo unspecified) | 174 to 176

Now from value to compound:

melting point [°C] | Structure (SMILES)
58 to 60 | C=CCOc1ccccc1C(=O)O
201 to 203 | Cc1ccc(F)c(-n2cc(O)c(C(=O)O)n2)c1
207 to 209 | Nn1c(S)nnc1-c1ccco1
138 to 140 | CC(C)(C)NS(=O)(=O)c1cc(N)ccc1F
299 to 301 | O=C(CCCl)Nc1ccc2[nH]c(=O)[nH]c2c1
162 to 164 | CC(Cl)C(=O)c1c[nH]c2ncccc12 (stereo unspecified)
141 to 143 | Nc1cc(-c2ccc(Br)s2)n[nH]1
305 to 307 | Cn1c(=O)[nH]c(=O)c2ccc(C(=O)O)nc21
139 to 141 | CCOc1ccc(S(N)(=O)=O)cc1Br
164 to 166 | CCN(CC)S(=O)(=O)c1cccc(C(=O)O)c1
188 to 190 | O=Cc1c[nH]nc1-c1ccc2c(c1)OCO2
186 to 188 | CC(Cl)C(=O)c1ccc2c(c1)NC(=O)CO2 (stereo unspecified)
93 to 95 | Cc1ccc(-c2csc(Cl)n2)cc1
210 to 212 | Cc1cnc(-c2cccc(C(=O)O)c2)s1
91 to 93 | O=C(O)CCCc1ccc2ccccc2c1
119 to 121 | CCOc1ccc(S(=O)(=O)N(CC)CC)cc1N
276 to 278 | O=C(O)c1ccc(NC(=O)c2ccc(Br)o2)cc1
254 to 256 | CSc1[nH]c(=O)c(C(=O)O)cc1C#N
269 to 271 | CNC1=NS(=O)(=O)c2ccccc21
219 to 221 | COc1ccc(C(=O)O)cc1OCc1ccccn1
61 to 63 | Cc1ccc(C)n1-c1ccc(CN)cc1

melting point [°C] | Structure (SMILES)
242 to 244 | Nc1nc(-c2ccc(S(=O)(=O)N3CCCCCC3)cc2)cs1
150 to 152 | CC(Cc1cccc(F)c1)(C(=O)O)C(=O)O
259 to 261 | Nc1c([N+](=O)[O-])c(=O)oc2ccccc12
83 to 85 | O=C1C(Br)CCN1c1ccc(Cl)cc1 (stereo unspecified)
153 to 157 | Cn1cnnc1Sc1ccc(N)cc1
110 to 112 | O=C(Nc1cc(Cl)ccc1Cl)OCC(F)(F)F
206 to 208 | CSc1ncc(C(=O)O)n1-c1ccccc1
167 to 169 | COc1ccccc1NS(=O)(=O)c1ccc(O)c(N)c1
99 to 101 | NNC(=O)CCc1ccccc1
131 to 133 | NC(C(=O)O)(c1cccc(F)c1)C(F)(F)F (stereo unspecified)
209 to 211 | CC1(c2ccc(C#N)cc2)NC(=O)NC1=O (stereo unspecified)
139 to 141 | O=S(=O)(c1ccc2oc(S)nc2c1)N1CCCCC1
174 to 176 | O=c1[nH]c2ccccc2c(=O)n1CCCO
49 to 51 | CCCOc1ccc(N)cc1Cl
126 to 128 | O=C(O)c1cnc(Cl)c([N+](=O)[O-])c1
138 to 140 | Nc1ccc(Oc2cnccn2)cc1
66 to 68 | Cc1cc(F)c([N+](=O)[O-])cc1S(=O)(=O)Cl
129 to 131 | CS(=O)(=O)c1ccc(-c2nc(CCl)co2)cc1
152 to 154 | CNC(=O)c1ccn(-c2ccc(N)cc2)n1
97 to 99 | O=Cc1ccccc1S(=O)(=O)N1CCOCC1
54 to 56 | O=C1C=CC(=O)N1c1ccccc1Sc1ccc(Cl)cc1

melting point [°C] | Structure (SMILES)
109 to 111 | Brc1nnc2ccccn12
136 to 138 | Cc1nnc(-c2cccc(N)c2)o1
188 to 190 | CCS(=O)(=O)c1ccc2c(c1)N(CC(=O)O)CC(=O)O2
159 to 161 | O=C(O)CCc1nnc(-c2ccc(Cl)cc2)o1
101 to 103 | CC(C)(C)NS(=O)(=O)Cc1cccc(N)c1
49 to 51 | Brc1ccc(NCc2cccs2)cc1
236 to 238 | O=C(O)c1cc(Cl)c([N+](=O)[O-])[nH]1
115 to 117 | OCc1cn(-c2ccccc2)nc1-c1cccs1
221 to 223 | Cc1c(C(=O)O)cccc1N1CCNC1=O
142 to 144 | Brc1ccc2c(c1)c1cc(Br)ccc1n2CC1CO1 (stereo unspecified)
116 to 118 | CCC(=O)Nc1cccc(N)c1C
177 to 179 | O=C(Cc1ccc(Br)cc1)NC(C(=O)O)c1ccccc1 (stereo unspecified)
139 to 141 | CC(=O)c1cc(N)cc(C(C)=O)c1
111 to 113 | CC(C)CCNS(=O)(=O)Cc1ccc(N)cc1
108 to 112 | COc1cccc(NCC(=O)NN)c1
254 to 256 | O=C(O)c1ccc(-c2nc3ccccc3s2)s1
107 to 109 | CCN(CC)c1ccc(N)cc1S(=O)(=O)Nc1ccc(OC)cc1
82 to 84 | O=C1CCc2c1ccc(Cl)c2Cl
189 to 191 | Cc1nc(Cc2ccccn2)sc1C(=O)O
51 to 53 | CCOc1ccc(Br)cc1N
200 to 202 | Cn1c(CCC(=O)O)nc(=O)c2ccccc21

melting point [°C] | Structure (SMILES)
106 to 108 | N#Cc1cccc(OCC(=O)NC2CC2)c1
91 to 93 | CC(Oc1ccccc1Cc1ccccc1)C(=O)O (stereo unspecified)
144 to 148 | CCc1ccc(N2CC(C(=O)O)CC2=O)cc1 (stereo unspecified)
113 to 115 | Cc1ccc(N)cc1-n1cnnn1
277 to 279 | Cn1cc(C(=O)O)c(-c2coc3ccccc23)n1
148 to 152 | Nc1c(-c2ccccc2)nc2sccn12
157 to 159 | CC(=O)Oc1ccc2ccc(O)cc2c1
62 to 64 | CCOCCNC(=O)c1cccc(Br)c1
152 to 154 | O=[N+]([O-])c1c(CCl)nc2ccccn12
62 to 64 | COc1ccc([N+](=O)[O-])cc1C(C)N (stereo unspecified)
140 to 142 | CNC(=O)c1cccc(C#N)c1
232 to 234 | Cc1cc(C(=O)O)c(C)n1-c1ccc(F)cc1
155 to 157 | N#Cc1sc2ccccc2c1N
314 to 316 | CC(=O)Nc1ccc(C2NC(=O)NC2=O)cc1 (stereo unspecified)
138 to 140 | Cc1c(S(=O)(=O)Cl)sc2cc(F)ccc12
195 to 197 | CC(=O)c1c(C)[nH]c2ccccc12
105 to 107 | Cc1ccc2ncnc(Cl)c2c1
61 to 63 | Nc1ccccc1SCC(O)c1ccccc1 (stereo unspecified)
141 to 143 | CC(=O)N1CC(C)CNc2ccccc21 (stereo unspecified)
